ChEMBL document CHEMBL1781882, “Neuroprotective effects of furopyrazole derivative of benzylindazole analogs on C2 ceramide-induced apoptosis in cultured cortical neurons” (Bioorg Med Chem Lett, 2009)
Activity calls are given as the source filed them. The rule behind the calls is not given here.

Experiments:
Cortical neurone [1] = assay: Neuroprotective activity in Sprague-Dawley rat cortical neurons assessed as reduction in C2 ceramide-induced cell death treated for 2 hrs followed by challenged with C2 ceramide for 24 hrs by MTT assay; format: functional
[2] = Neuroprotective activity in Sprague-Dawley rat cortical neurons assessed as reduction in C2 ceramide-induced cell death measured as cell survival at 1 uM for 2 hrs followed by challenged with C2 ceramide for 24 hrs by MTT assay; format: functional, Cortical neurone
[3] = Neuroprotective activity in Sprague-Dawley rat cortical neurons assessed as reduction in C2 ceramide-induced cell death measured as cell survival at 2.5 uM for 2 hrs followed by challenged with C2 ceramide for 24 hrs by MTT assay; format: functional, Cortical neurone
[4] = Neuroprotective activity in Sprague-Dawley rat cortical neurons assessed as reduction in C2 ceramide-induced cell death measured as cell survival at 5 uM for 2 hrs followed by challenged with C2 ceramide for 24 hrs by MTT assay; format: functional, Cortical neurone
[5] = Neuroprotective activity in Sprague-Dawley rat cortical neurons assessed as reduction in C2 ceramide-induced cell death measured as cell survival at 10 uM for 2 hrs followed by challenged with C2 ceramide for 24 hrs by MTT assay; format: functional, Cortical neurone
Cortical neurone [6] = assay: Neuroprotective activity in Sprague-Dawley rat cortical neurons assessed as reduction in C2 ceramide-induced cell death at 30 uM for 2 hrs followed by challenged with C2 ceramide for 24 hrs by MTT assay; format: functional
Cortical neurone [7] = assay: Neuroprotective activity in Sprague-Dawley rat cortical neurons assessed as attenuation of C2 ceramide-induced apoptosis at 10 uM challenged with C2 ceramide for 24 hrs by Hoechst 33258 staining; format: functional
[8] = (§1) Neuroprotective activity in Sprague-Dawley rat cortical neurons assessed as reduction in C2 ceramide-induced cell death measured as cell survival at 10 uM for 2 hrs followed by challenged with C2 ceramide for 24 hrs by MTT assay in presence of U0126 ERK1/2 inhibitor (reference value: 100.2 +/- 1.7%); format: functional, Cortical neurone
[9] = as §1, with “PD98059” for “U0126”; format: functional, Cortical neurone
[10] = Cytotoxicity against Sprague-Dawley rat cortical neurons at 10 uM for 24 hrs by MTT assay; conditions: cortical neurone

Compound | Activity (Cortical neurone [1]) | Activity [2] [%] | Activity [3] [%] | Activity [4] [%] | Activity [5] [%] | Activity (Cortical neurone [6]) | Activity (Cortical neurone [7]) | Activity [8] [%] | Activity [9] [%] | Activity [10]
Cc1cc2c(o1)c(-c1ccc(CO)cc1)nn2-c1ccccc1 | Active | 75.6 | 81.5 | 90.1 | 100.2 | inactive | Active | 71.9 | 70.3 | Non-toxic
Cc1cc2c(o1)c(-c1ccc(C(=O)O)cc1)nn2Cc1ccccc1 | inactive |  |  |  |  |  |  |  |  | 
Cc1cc2c(o1)c(-c1ccc(C(=O)O)cc1)nn2-c1ccccc1 | inactive |  |  |  |  |  |  |  |  | 
